Measured values: ChEMBL document CHEMBL1154649, “Anti-HBV agents. Part 3: preliminary structure-activity relationships of tetra-acylalisol A derivatives as potent hepatitis B virus inhibitors” (Bioorg Med Chem Lett, 2009)

Experiments:
[1] = Cmax in Sprague-Dawley rat at 10 mg/kg, ig; type: ADME, organism-based; set-up: dose 10 mg/kg, route intragastric; conditions: in vivo, po
[2] = Drug level in Sprague-Dawley rat blood at 2 mg/kg, iv after 4 hrs; type: ADME, organism-based; set-up: dose 2 mg/kg, route intravenous; conditions: read-out: Drug uptake
[3] = Drug level in Sprague-Dawley rat blood at 10 mg/kg, ig after 0.083 hrs; type: ADME, organism-based; set-up: dose 10 mg/kg, route intragastric; conditions: po, read-out: Drug uptake
[4] = Drug level in Sprague-Dawley rat blood at 2 mg/kg, iv after 24 hrs; type: ADME, organism-based; set-up: dose 2 mg/kg, route intravenous; conditions: read-out: Drug uptake
[5] = Drug level in Sprague-Dawley rat blood at 10 mg/kg, ig after 0.25 hrs; type: ADME, organism-based; set-up: dose 10 mg/kg, route intragastric; conditions: po, read-out: Drug uptake
[6] = Drug level in Sprague-Dawley rat blood at 2 mg/kg, iv after 2 hrs; type: ADME, organism-based; set-up: dose 2 mg/kg, route intravenous; conditions: read-out: Drug uptake
[7] = tested on: Rattus norvegicus; assay: AUC in Sprague-Dawley rat at 10 mg/kg, ig; type: ADME, organism-based, Plasma; set-up: dose 10 mg/kg, route intragastric; conditions: in vivo, po
[8] = Drug level in Sprague-Dawley rat blood at 2 mg/kg, iv after 1 hr; type: ADME, organism-based; set-up: dose 2 mg/kg, route intravenous; conditions: read-out: Drug uptake
[9] = tested on: Hepatitis B virus; assay: Antiviral activity against HBV assessed as inhibition of viral early antigen secretion; type: functional, organism-based
[10] = tested on: Rattus norvegicus; assay: AUC in Sprague-Dawley rat at 2 mg/kg, iv; type: ADME, organism-based, Plasma; set-up: dose 2 mg/kg, route intravenous; conditions: in vivo
[11] = Drug level in Sprague-Dawley rat blood at 2 mg/kg, iv after 0.5 hrs; type: ADME, organism-based; set-up: dose 2 mg/kg, route intravenous; conditions: read-out: Drug uptake
[12] = Initial plasma concentration n Sprague-Dawley rat at 2 mg/kg, iv; type: ADME, organism-based; set-up: dose 2 mg/kg, route intravenous
[13] = Drug level in Sprague-Dawley rat blood at 10 mg/kg, ig after 0.5 hrs; type: ADME, organism-based; set-up: dose 10 mg/kg, route intragastric; conditions: po, read-out: Drug uptake
[14] = Drug level in Sprague-Dawley rat blood at 2 mg/kg, iv after 0.25 hrs; type: ADME, organism-based; set-up: dose 2 mg/kg, route intravenous; conditions: read-out: Drug uptake
[15] = Drug level in Sprague-Dawley rat blood at 10 mg/kg, ig after 1 hr; type: ADME, organism-based; set-up: dose 10 mg/kg, route intragastric; conditions: po, read-out: Drug uptake
[16] = Cytotoxicity against human HepG2(2.2.15) cells; type: cell-based
[17] = Selectivity index, ratio of CC50 for human HepG2(2.2.15) cells to IC50 for HBV early antigen secretion; type: functional
[18] = Drug level in Sprague-Dawley rat blood at 10 mg/kg, ig after 8 hrs; type: ADME, organism-based; set-up: dose 10 mg/kg, route intragastric; conditions: po, read-out: Drug uptake
[19] = Volume of distribution at steady state in Sprague-Dawley rat at 2 mg/kg, iv; type: ADME, organism-based; set-up: dose 2 mg/kg, route intravenous; conditions: in vivo, read-out: Vdss
[20] = Drug level in Sprague-Dawley rat blood at 10 mg/kg, ig after 4 hrs; type: ADME, organism-based; set-up: dose 10 mg/kg, route intragastric; conditions: po, read-out: Drug uptake
[21] = tested on: Rattus norvegicus; assay: Oral bioavailability in Sprague-Dawley rat at 10 mg/kg; type: ADME, organism-based; conditions: in vivo
[22] = Half life in Sprague-Dawley rat at 2 mg/kg, iv; type: ADME, organism-based; set-up: dose 2 mg/kg, route intravenous; conditions: in vivo
[23] = Drug level in Sprague-Dawley rat blood at 10 mg/kg, ig after 24 hrs; type: ADME, organism-based; set-up: dose 10 mg/kg, route intragastric; conditions: po, read-out: Drug uptake
[24] = Drug level in Sprague-Dawley rat blood at 2 mg/kg, iv after 8 hrs; type: ADME, organism-based; set-up: dose 2 mg/kg, route intravenous; conditions: read-out: Drug uptake
[25] = Tmax in Sprague-Dawley rat at 10 mg/kg, ig; type: ADME, organism-based; set-up: dose 10 mg/kg, route intragastric; conditions: in vivo, po
[26] = Selectivity index, ratio of CC50 for human HepG2(2.2.15) cells to IC50 for HBV surface antigen secretion; type: functional
[27] = Drug level in Sprague-Dawley rat blood at 10 mg/kg, ig after 2 hrs; type: ADME, organism-based; set-up: dose 10 mg/kg, route intragastric; conditions: po, read-out: Drug uptake
[28] = tested on: Rattus norvegicus; assay: Clearance in Sprague-Dawley rat at 2 mg/kg, iv; type: ADME, organism-based; set-up: dose 2 mg/kg, route intravenous; conditions: in vivo
[29] = tested on: Hepatitis B virus; assay: Antiviral activity against HBV assessed as inhibition of viral surface antigen secretion; type: functional, organism-based
[30] = Drug level in Sprague-Dawley rat blood at 2 mg/kg, iv after 0.083 hrs; type: ADME, organism-based; set-up: dose 2 mg/kg, route intravenous; conditions: read-out: Drug uptake

Work on CC(=O)O[C@@H](C[C@@H](C)C1=C2C[C@H](OC(C)=O)[C@H]3[C@@]4(C)CCC(=O)C(C)(C)[C@@H]4CC[C@]3(C)[C@@]2(C)CC1)[C@@H](OC(C)=O)C(C)(C)OC(C)=O yielded a Cmax [1] of 383 ng/mL, a concentration at 4 h [2] of 14.5 ng/mL and a concentration at 0.083 h [3] of 8.6 ng/mL. It also gave a concentration at 24 h [4] of 2.19 ng/mL, a concentration at 0.25 h [5] of 70 ng/mL and a concentration at 2 h [6] of 71.8 ng/mL. The AUC [7] was 1040 ng·h/mL, the concentration at 1 h [8] was 156 ng/mL and the IC50 [9] was 11 µM. It also gave an AUC [10] of 510 ng·h/mL, a concentration at 0.5 h [11] of 246 ng/mL and a C0 [12] of 567 ng/mL. The concentration at 0.5 h [13] was 170 ng/mL, the concentration at 0.25 h [14] was 363 ng/mL and the concentration at 1 h [15] was 383 ng/mL. The CC50 [16] was > 1.6 mM, the “Ratio CC50/IC50” value [17] was >145 and the concentration at 8 h [18] was 6.28 ng/mL. For the same compound, the Vd [19] was 5.73 L/kg, the concentration at 4 h [20] was 55.9 ng/mL and the F [21] was 40.9%. For the same compound, the half-life [22] was 97.8 min, the concentration at 24 h [23] was 2.03 ng/mL and the concentration at 8 h [24] was 5.02 ng/mL. The Tmax [25] was 1 h, the “Ratio CC50/IC50” value [26] was >333 and the concentration at 2 h [27] was 290 ng/mL. It also gave a CL [28] of 3.87 L/h/kg, an IC50 [29] of 4.8 µM and a concentration at 0.083 h [30] of 567 ng/mL.

In the case of CC(=O)O[C@@H](C[C@@H](C)[C@]12CC[C@@]3(C)[C@@]1(C[C@H](OC(C)=O)[C@H]1[C@@]4(C)CCC(=O)C(C)(C)[C@@H]4CC[C@@]13C)O2)[C@@H](OC(C)=O)C(C)(C)OC(C)=O, the IC50 [9] is reported as 61 µM, the CC50 [16] is reported as > 4 mM and the “Ratio CC50/IC50” value [17] is reported as >66. For the same compound, the “Ratio CC50/IC50” value [26] was >87 and the IC50 [29] was 46 µM.
